Test results reported in article PMC12973313 (Chemical Science, 2026).
Like-named read-outs stand apart in the source and are kept apart here.

Tests used:
[1] = Bi-directional permeability in Caco-2 cell line; type: in vitro ADME; details: human; for Papp B→A at 2 h, 5 µM: Caco-2, pH 7.4, 5 µM, basolateral to apical; for recovery at 2 h, 5 µM: Caco-2, pH 7.4, after 2 hours; for Papp A→B at 2 h, 5 µM: apical to basolateral
Source text: Next, to gauge the suitability of SSAs for oral dosing, 9 was subjected to a Caco-2 permeability assay which is used to both predict human intestinal permeability and investigate drug efflux, predicting in vivo compound absorption. This assay allows assessment of a compound's ability to undergo transport from the apical to the basolateral (A–B) compartments of the cell monolayer and vice versa (B–A). […] This is likely to result in poor absorption when dosed orally and therefore further development would be necessary for these agents to become suitable for oral administration. […]
The ionspray voltage was 5500V.
Bi-directional Permeability in Caco-2 Cell Line:
The bi-directional permeability in Caco-2 cell lines was determined by seeding cells onto an HTS Transwell plate. Cells were cultivated for 14-18 days in a cell culture incubator at 37°C, 5% CO2, 95% relative humidity. Cell culture medium was replaced every other day. To assess monolayer integrity the transepithelial electrical resistance (TEER) across the monolayer was measured using Millicell Epithelial volt-ohm meter prior to assay and Lucifer yellow (LY) fluorescence measurement post-assay.
Test compound was prepared in DMSO and diluted in Hank’s Balanced Saline Solution (HBSS, pH 7.4) to a final concentration of 5 µM. Compound was added to the donor compartment of the transwell plate for both apical to basolateral (A>B) and basolateral to apical (B>A) measurements, with blank HBSS being added to the receiver compartment. The transwell plate was then incubated at 37°C, 5% CO2 for 2 hours.
Samples were taken at T=0 and T=2 hours determine the concentration of initial donor sample, and the concentration of receiver and donor wells post-incubation, respectively.
The samples were quenched with solvent containing internal standard (IS). The supernatant was mixed with an appropriate volume of ultra-pure water before LC-MS/MS analysis.
Samples were analysed using a Shimadzu Nexera LC Binary Gradient LC-30AD (Shimadzu Inc, Kyoto), coupled to a Sciex 6500+ (AB Inc., Illinois). Separation of compounds was achieved using a HALO 90Å biphenyl (2.7µm,2.1x50mm) (Advanced Materials Technology, Wilmington) column at a temperature of 40°C. A binary mobile phase gradient at a flow rate of 0.7 mL/min was used. Initial LC conditions comprised of 95% solvent A (0.1% formic acid in water) and 5% solvent B (0.1% formic acid in acetonitrile). This was ramped to 95% solvent B at 0.7 minutes, held for 0.5 minutes and then immediately returned to initial conditions. Sample analysis was by electrospray ionisation combined with multiple reaction monitoring in positive ion mode. The ion spray voltage was 5500V.
In vitro Absorption, Distribution and Metabolism results
Table S1 – Result from solubility assays performed in PBS pH 7.4 for SSA 9.
Table S2 – Summary of results from Caco-2 permeability assays for SSA 9. Papp is given as […]
cm/s. A = apical; B = basolateral. Recovery = % SSA recovered from the assay after 2 hours.
ID Papp (A-B) % Recovery Papp (B-A) % Recovery Efflux Ratio
Table S3 – Summary of results from human plasma protein binding assays for SSA 9. % Bound = % of SSA bound to the plasma proteins after 6 hours incubation at 37 °C. Low % […]
= > 99 %. % Recovery = % SSA recovered from the assay after 6 hours.
ID % Bound % Recovery % Stability
Table S4 – Summary of results from mouse, rat and human microsomal stability assays for SSA 9. The in vitro half-life (t1/2) and microsomal intrinsic clearance (CLint) were calculated from the elimination rate (k, the slope of the natural log of concentration verses time curve), assuming first order kinetics, using the formulae t1/2 = 0.693/-k and CLint = 0.693/t1/2 […]. This compound would be classed as a low clearance compound in all three species. […]

[2] = tested on: A2780 CisR cisplatin resistant ovarian cancer cells; experiment: GI50 determination, SRB assay; type: cell-based, human; details: 96 hours; read-out: Mean GI50 (μM) A2780 CisR SRB Assays
Procedure: (§1) GI50 determination assays
(§2) Cell culture: The RPE-1 retinal pigment epithelial, A2780 human ovarian carcinoma, and A2780 CisR cisplatin resistant human ovarian carcinoma cell lines were donated with thanks from the Institute of Cancer Research. The A2780 and A2780 CisR cell lines were cultured in IMDM supplemented with 10 % FBS at 37 °C and 5 % CO2, while the RPE-1 cell line was cultured in a 1:1 mixture of Dulbecco's Modified Eagle Medium and Ham’s F-12 Nutrient Mixture (DMEM/F-12) at 37 °C and 5 % CO2.
(§3) SRB assay: Cells were seeded into 96-well plates at 800 cells per well/cpw (A2780), 1600 cpw (A2780 CisR) or 400 cpw (RPE-1) in cell culture medium and cultured for 48 hours followed by addition of each compound over an eight-point concentration range (each concentration in triplicate). Plates were then cultured for a further 96 hours, after which the cell culture […]
(§4) medium was removed from each well and the cells fixed with addition of 70 µL/well of 10 % (w/v) trichloroacetic acid (TCA) in distilled water followed by incubation for 30 minutes at RT.
(§5) Each plate was then washed with distilled water five times before addition of 70 µL SRB dye (0.4 % (w/v) SRB dye (ThermoFisher Scientific, USA) solubilised in 1 % (v/v) acetic acid/ dH2O) and incubat ed for 30 minutes at RT, followed by washing three times with 1 % (v/v) acetic acid and drying in a 37 °C oven overnight. Once dry, 100 μl of 10 mM Tris -base (ThermoFisher Scientific, USA) was added to each well and plates put on a microplate shaker for 10 minutes at 200 rpm to solubilize the dye. Absorbance values were then read at wavelength 490 nm on a Victor X4 multi-label plate reader (PerkinElmer Life Sciences, USA), data analysed using Microsoft Excel and graphs produced using GraphPad Prism 9.0 and the GI50 value calculated.
(§6) Solutions and compo und preparation: All solvents and starting materials were purchased from known chemical suppliers. Compound stock solutions were prepared in DMSO. Buffer […]
(§7) 500 mM. Buffer B consisted of Na2SO4 (167 mM) and NaOAc (5 mM) with a pH of 5.5 and an ionic strength of 500 mM.
(§8) Vesicle formation: Giant unilamellar Vesicles (GUVS) were prepared through the electro formation method using a Nanion VesiclePrepPro. A solution of 1,2-diphytanoyl-sn-glycero-3-phosphocholine (DPhPC) (10 mM) with 10 % cholesterol in chloroform (20 µL) was deposited onto an ITO coated glass surface (surface coated glass slide) and allowed to evaporate to create a dehydrated thin lipid film. A greased O-ring was then placed around the dehydrated lipid film to create a seal. This volume was then filled with a sucrose solution (275 µL, 200 mM) and then sealed with a second ITO coated glass slide. An AC current (3 V/5 Hz) was then applied. After 2 hrs, the voltage and frequency were reduced in steps over 30 mins to 1.6 V/1 Hz and held for 1 hr before being reduced to 0 V/0 Hz over a further 30 min […]
(§9) Patch clamp measurements: Experiments were performed using a Port-a-Patch system (Nanion Technologies) with borosilicate glass chips that contain an aperture diameter of approximately 1 µm. Buffer A (5 µL) was placed on the underside of the chip over the aperture, The chip was then placed into the port-a-patch system. Buffer A (15 µL) was then added to the top of the chip and 5 µL of the GUV stock solution added. The GUVS were the positioned over the aperture in the chip by application of negative pressure (-30 mbar).
(§10) When a GUV is positioned over the aperture in the chip, it bursts, leaving a planar bilayer as a seal. The negative pressure is then removed, leaving the planar bilayer in place over the aperture. The external buffer A was the exchanged with buffer B, through four simultaneous […]
(§11) buffer exchanges (4 x 15 µL). […]
(§12) = 30 s, to give a final experimental concentration of 0.1 – 1 mM as appropriate. The number of sweeps was set to 1000, the sweep interval to 0.00 s, sample interval to 1.00 ms and the protocol was run for a total of 5 mins. Each experiment was repeated a minimum of three time to ensure reproducibility.

[3] = tested on: A2780 ovarian cancer cells; experiment: GI50 determination, SRB assay; type: cell-based, human; details: 96 hours; read-out: Mean GI50 (μM) A2780 SRB Assays
Procedure: as §1, §2, §3, §4, §5, §6, §7, §8, §9, §10, §11, §12

RPE-1 cells = experiment: GI50 determination, SRB assay; type: cell-based, human; details: 96 hours; read-out: Mean GI50 (μM) RPE-1 SRB Assays
Procedure: as §1, §2, §3, §4, §5, §6, §7, §8, §9, §10, §11, §12

[4] = Plasma protein binding, equilibrium dialysis; type: in vitro ADME, human; details: pH 7.4; human plasma, after 6 hours
Procedure: This allows an assessment of the free drug concentration available to distribute into the tissues and interact with the target. The extent to which a compound binds to the constituents of blood plasma can influence drug distribution. […] page 10: In vitro Absorption, Distribution and Metabolism studies General note: These studies were performed by Contract Research Organisation (CRO) Pharmaron. The methodology provided within the ESI is published within the express permission of this organisation. The percentage of a compound recovered during the […] limitations such as unintended potential non-specific binding events to experimental equipment, solubility issues, etc. Protein Binding measurements in human plasma by using equilibrium dialysis: The fraction unbound in human plasma (P-KB, Ltd People's hospital of Shandong) was measured using 96-well Equilibrium Dialysis Plate (HTDialysis LLC, Gales Ferry, CT). Human plasma containing 5 μM test compound was dialysed against dialysis buffer (PBS, pH 7.4) with initial samples taken to allow for assessment of plasma stability and recovery before the plate was incubated for 6 hours at 37°C at 5% CO2. Samples were removed at 6 hours, and all samples were matrix matched and quenched with acetonitrile containing internal standard. Samples were centrifuged at 3,220g for 30 minutes to precipitate protein and enable sampling of supernatant prior to appropriate dilution for liquid chromatography mass-spectrometry (LC-MS/MS) analysis. Samples were analysed using a Shimadzu Nexera LC Binary Gradient LC-30AD (Shimadzu Inc, Kyoto), coupled to a Sciex 6500+ (AB Inc., Illinois). Separation was achieved using a XSelect HSS T3 (2.5μm, 2.1 x 50 mm) (Waters Ltd., Wilmslow) column at a temperature of 40°C and a binary mobile phase gradient at a flow rate of 0.8 mL/min. Initial LC conditions comprised of […] was ramped to 98% B at 0.5 min, held for 0.4 min and then immediately returned to initial conditions. Sample analysis was by electrospray ionisation in combined with multiple reaction monitoring in positive ionisation mode. The ionisation voltage was +5500 V. Kinetic Solubility Determination in PBS pH 7.4: The stock solutions of test and control compounds were prepared in DMSO at 10 mM. From […] These solutions were then shaken at 1100 rpm for 2 hours at 25°C. Following incubation, the samples were filtered using a vacuum manifold. The filtrate was analysed and quantified against a standard of known concentration using liquid chromatography mass- spectrometry (LC-MS/MS). Samples were analysed using a Shimadzu Nexera LC Binary Gradient LC-30AD (Shimadzu Inc, Kyoto), coupled to a Sciex 4500 mass spectrometer (AB Inc., Illinois). Separation of […] Wilmslow) at a temperature of 40°C and a binary mobile phase gradient at a flow rate of 0.8 mL/min. […] This was ramped to 98% solvent B at 0.5 minutes, held for 0.4 minutes and then immediately returned to initial conditions. Sample analysis was by electrospray ionisation combined with multiple reaction monitoring in positive ion mode. The ionspray voltage was […]. 10

Row | SMILES | Papp B→A at 2 h, 5 µM [1] | recovery at 2 h, 5 µM ([1]; read-out: Recovery (%) AP-BL) | recovery at 2 h, 5 µM ([1]; read-out: Recovery (%) BL-AP) | Papp A→B at 2 h, 5 µM ([1]; Caco-2, pH 7.4) | GI50 [2] | GI50 [3] | GI50 (RPE-1 cells) | further results
1 | COCCc1ccc(OCC(O)CNC(C)C)cc1 (centres unmarked) [Metoprolol] | 26.4 ×10⁻⁶ cm/s | 108% | 99% | 28.4 ×10⁻⁶ cm/s | – | – | – | efflux ratio at 2 h, 5 µM ([1]; Caco-2, pH 7.4, Caco-2): 0.93
2 | C[C@H]1O[C@@H](O[C@H]2[C@@H](O)C[C@H](O[C@H]3[C@@H](O)C[C@H](O[C@H]4CC[C@@]5(C)[C@H](CC[C@@H]6[C@@H]5C[C@@H](O)[C@]5(C)[C@@H](C7=CC(=O)OC7)CC[C@]65O)C4)O[C@@H]3C)O[C@@H]2C)C[C@H](O)[C@@H]1O [Digoxin] | 18.7 ×10⁻⁶ cm/s | 95.9% | 99.2% | 0.42 ×10⁻⁶ cm/s | – | – | – | efflux ratio at 2 h, 5 µM ([1]; Caco-2, pH 7.4): 45.6
3 | CCCC[N+](CCCC)(CCCC)CCCC [TBACl, reference compound] | – | – | – | – | 219 µM | 114 µM | 532 µM | –
4 | CC(=O)N1CCN(c2ccc(OCC3COC(Cn4ccnc4)(c4ccc(Cl)cc4Cl)O3)cc2)CC1 (centres unmarked) [Ketoconazole, reference compound] | – | – | – | – | – | – | – | recovery at 6 h, 5 µM [4]: 96.6%
5 | N.N.[Cl][Pt][Cl] [Cisplatin, cisplatin, reference compound] | – | – | – | – | 10.8 µM | 1.09 µM | 6.25 µM | –
